Structures are written as SMILES. Inconclusive results are not listed. Active and inactive are the calls of the source. No rule for the calls is given here.

The first data set has as its system rat and mouse 2-year carcinogenicity bioassay, tumor evidence. Description: Consolidated carcinogenicity assay summary data. Particulars: Route (rodents): Dosed feed. An excerpt:
Cancer Evaluation Criteria
The National Toxicology Program describes the results of individual experiments on a chemical agent and notes the strength of the evidence for conclusions regarding each study. […] Other organizations, such as the International Agency for Research on Cancer, assign a strength of evidence for conclusions based on an examination of all available evidence, including animal studies such as those conducted by the NTP, epidemiologic studies, and estimates of exposure. Thus, the actual determination of risk to humans from chemicals found to be carcinogenic in laboratory animals requires a wider analysis that extends beyond the purview of these studies.
Five categories of evidence of carcinogenic activity are used in the Technical Report series to summarize the strength of evidence observed in each experiment: two categories for positive results (clear evidence and some evidence); one category for uncertain findings (equivocal evidence); one category for no observable effects (no evidence); and one category for experiments that cannot be evaluated because of major flaws (inadequate study). These categories of interpretative conclusions were first adopted in June 1983 and then revised on March 1986 for use in the Technical Report series to incorporate more specifically the concept of actual weight of evidence of carcinogenic activity. For each separate experiment (male rats, female rats, male mice, female mice), one of the following five categories is selected to describe the findings. These categories refer to the strength of the experimental evidence and not to potency or mechanism.
For studies showing multiple chemical-related neoplastic effects that if considered individually would be assigned to different levels of evidence categories, the following convention has been adopted to convey completely the study results. In a study with clear evidence of carcinogenic activity at some tissue sites, other responses that alone might be deemed some evidence are indicated as "were also related" to chemical exposure. In studies with clear or some evidence of carcinogenic activity, other responses that alone might be termed equivocal evidence are indicated as "may have been" related to chemical exposure.
When a conclusion statement for a particular experiment is selected, consideration must be given to key factors that would extend the actual boundary of an individual category of evidence. Such consideration should allow for incorporation of scientific experience and current understanding of long-term carcinogenesis studies in laboratory animals, especially for those evaluations that may be on the borderline between two adjacent levels. These considerations should include:
- adequacy of the experimental design and conduct;
- occurrence of common versus uncommon neoplasia;
- progression (or lack thereof) from benign to malignant neoplasia as well as from preneoplastic to neoplastic lesions;
- some benign neoplasms have the capacity to regress but others (of the same morphologic type) progress. At present, it is impossible to identify the difference. Therefore, where progression is known to be a possibility, the most prudent course is to assume that benign neoplasms of those types have the potential to become malignant;
- combining benign and malignant tumor incidences known or thought to represent stages of progression in the same organ or tissue;
- latency in tumor induction;
- multiplicity in site -specific neoplasia;
- supporting information from proliferative lesions (hyperplasia) in the same site of neoplasia or in other experiments (same lesion in another sex or species);
- presence or absence of dose relationships;
- statistical significance of the observed tumor increase;
- concurrent control tumor incidence as well as the historical control rate and variability for a specific neoplasm;
- survival-adjusted analyses and false positive or false negative concerns;
- structure-activity correlations; and
[…]
For `C=C(Cl)CSC(=S)N(CC)CC`, the carcinogen call was “active; clear evidence”. For `Nc1ccc2c(c1)C(=O)c1ccccc1C2=O`, the carcinogen call was “active; clear evidence”. Still for that read-out and setting: under `Nc1cc(Cl)c(N)c(Cl)c1` stands “active; no evidence”. `O=C1c2ccccc2C(=O)c2ccccc21`: the carcinogen call is “active; some evidence”.

Turning to `Nc1ncc([N+](=O)[O-])s1`, the carcinogen call is “active; clear evidence”.

Consider `CN(C)c1ccc(C(=O)c2ccc(N(C)C)cc2)cc1`, for which the carcinogen call was “active; clear evidence”. On the same count and under the same terms, as for `O=C(O)CN(CC(=O)O)CC(=O)O`, the entry is “active; clear evidence”. On to `N#Cc1c(Cl)c(Cl)c(Cl)c(C#N)c1Cl`, for which the carcinogen call was “active; clear evidence”.

In the case of `Nc1cc(Cl)cc(C(=O)O)c1Cl`, the carcinogen call was “active; no evidence”. As to `C[C@H]1CCCC(=O)CCC/C=C/c2cc(O)cc(O)c2C(=O)O1`, the carcinogen call was “active; no evidence”. As for `OCC(CO)(CBr)CBr`, the carcinogen call is “active; clear evidence”. Regarding `O=NN(c1ccccc1)c1ccccc1`, the carcinogen call is “active; clear evidence”.

In the case of `Cc1ncc[nH]1`, the carcinogen call is “active; some evidence”. Still for that read-out and setting: as for `CCOc1ccc(NC(C)=O)cc1N`, the entry is “active; no evidence”. Still for that read-out and setting: as for `Cc1ccc([N+](=O)[O-])cc1`, the entry is “active; equivocal evidence”. Take `O=C1C2(Cl)C3(Cl)C4(Cl)C(Cl)(Cl)C5(Cl)C3(Cl)C1(Cl)C5(Cl)C24Cl` (stereo not given): the carcinogen call is “active; clear evidence”. For `O=C(O)C1C(C(=O)O)C2(Cl)C(Cl)=C(Cl)C1(Cl)C2(Cl)Cl` (stereo not given), the carcinogen call was “active; clear evidence”.

With `c1ccc(NNc2ccccc2)cc1`, the carcinogen call is “active; clear evidence”. `CCCCC(CC)COC(=O)CCCCC(=O)OCC(CC)CCCC` (stereo not given): the carcinogen call is “active; no evidence”. As for `CC(CCl)OP(=O)(OC(C)CCl)OC(C)CCl` (stereo not given), the carcinogen call was “active; some evidence”. As for `Cc1cccc(C)c1N`, the carcinogen call was “active; clear evidence”.

Turning to `Nc1cc(S(=O)(=O)[O-])cc2cc(S(=O)(=O)[O-])c(N=Nc3ccc(-c4ccc(N=Nc5c(S(=O)(=O)[O-])cc6cc(S(=O)(=O)[O-])cc(N)c6c5[O-])c([O-])c4)cc3[O-])c([O-])c12.[Cu+2].[Cu+2].[Na+].[Na+].[Na+].[Na+]`, the carcinogen call was “active; some evidence”. On to `Nc1ccccc1C(=O)OCC=Cc1ccccc1`, for which the carcinogen call is “active; clear evidence”. Take `CCCCC(CC)COC(=O)c1ccccc1C(=O)OCC(CC)CCCC` (stereo not given): the carcinogen call is “active; clear evidence”.

`CCn1c2ccccc2c2cc(N)ccc21`: the carcinogen call was “active; clear evidence”. As for `O=[N+]([O-])c1ccc2c3c(cccc13)CC2`, the carcinogen call was “active; clear evidence”. With `Cc1ccccc1N`, the carcinogen call was “active; clear evidence”. Regarding `CCCN(CCC)c1c([N+](=O)[O-])cc(C(F)(F)F)cc1[N+](=O)[O-]`, the carcinogen call was “active; no evidence”. With `O=C(O)C(F)(F)C(F)(F)C(F)(F)C(F)(F)C(F)(F)C(F)(F)C(F)(F)F`, the carcinogen call was “active; clear evidence”. As to `CN(C)c1ccc(Cc2ccc(N(C)C)cc2)cc1`, the carcinogen call is “active; clear evidence”. The same measure, in the same setting: as for `ClC(Cl)=C(c1ccc(Cl)cc1)c1ccc(Cl)cc1`, the entry is “active; no evidence”; as for `O=Nc1ccc(NO)cc1`, “active; no evidence”; as for `COC(=O)C(c1ccccc1)C1CCCCN1` (stereo not given), “active; no evidence”. As to `Nc1nc(N)nc(N)n1`, the carcinogen call was “active; clear evidence”.

As for `Nc1nc(N)c2nc(-c3ccccc3)c(N)nc2n1`, the carcinogen call is “active; equivocal evidence”.

For `CCCCCCCCS(=O)C(C)Cc1ccc2c(c1)OCO2` (stereo not given), the carcinogen call is “active; no evidence”.

Staying with this data set, now noted: Route (rodents): Dosed water.
For `Cc1ccc(S(=O)(=O)Oc2ccc(N=Nc3ccc(-c4ccc(N=Nc5c(O)ccc6cc(S(=O)(=O)O)cc(S(=O)(=O)O)c56)c(C)c4)cc3C)cc2)cc1`, the carcinogen call was “active; clear evidence”. On to `CCOC(N)=O`, for which the carcinogen call is “active”.

Regarding `O=C(O)C(Cl)(Cl)Br`, the carcinogen call is “active; clear evidence”.

The same data set, now with this note: Route (rodents): Gavage.
In the case of `ClC(Cl)(Cl)C(Cl)(Cl)Cl`, the carcinogen call is “active; clear evidence”. The same measure, in the same setting: under `CCCCC(CC)COP(=O)(OCC(CC)CCCC)OCC(CC)CCCC` (stereo not given) stands “active; equivocal evidence”; under `CC(CCl)OC(C)CCl` (stereo not given), “active; no evidence”. Regarding `ClC(Cl)C(Cl)(Cl)Cl`, the carcinogen call is “active; equivocal evidence”. For the compound `C[C@]12CC[C@@H]3c4ccc(OC(=O)Cc5ccc(N(CCCl)CCCl)cc5)cc4CC[C@H]3[C@@H]1CC[C@@H]2OC(=O)Cc1ccc(N(CCCl)CCCl)cc1`, the carcinogen call is “active; no evidence”. For `OCc1c[nH]c2ccccc12`, the carcinogen call is “active; no evidence”. As for `c1ccc2occc2c1`, the carcinogen call is “active; no evidence”. As for `C[C@]12CCC(=O)C=C1CC[C@@H]1[C@@H]2CC[C@]2(C)C(=O)CC[C@@H]12`, the carcinogen call was “active; equivocal evidence”. On to `C=CC#N`, for which the carcinogen call was “active”. With `CC=Cc1ccc(O)c(OC)c1`, the carcinogen call is “active; equivocal evidence”. As for `C=CC(=O)NCO`, the carcinogen call was “active; no evidence”.

As to `CC(C)=C1CC[C@@H](C)CC1=O`, the carcinogen call is “active; no evidence”.

As for `COc1ccc(N)c(C)c1`, the carcinogen call was “active; clear evidence”. With `O=C1CCc2ccccc2O1`, the carcinogen call was “active; some evidence”. Take `Oc1ccc(Cl)cc1Cc1ccccc1`: the carcinogen call was “active; no evidence”. As to `CC=CC=CC=O`, the carcinogen call is “active; clear evidence”. Regarding `C=C(C)CCl`, the carcinogen call is “active; clear evidence”. With `CC1=CC(=O)CC(C)(C)C1`, the carcinogen call is “active; some evidence”. For `CN(C)c1ccc2nc3ccc(=[N+](C)C)cc-3sc2c1`, the carcinogen call was “active; some evidence”. For the compound `C[C@@H]1Cc2c(Cl)cc(C(=O)N[C@@H](Cc3ccccc3)C(=O)O)c(O)c2C(=O)O1`, the carcinogen call was “active; clear evidence”. On to `ClC(Cl)Cl`, for which the carcinogen call was “active; clear evidence”. With `CC(Cl)CCl` (stereo not given), the carcinogen call was “active; no evidence”. In the case of `C=C(C)[C@H]1CC=C(C)CC1`, the carcinogen call is “active; clear evidence”.

`C=CC(=C)CCC=C(C)C`: the carcinogen call was “active; clear evidence”. With `O=C/C=C/O`, the carcinogen call is “active; clear evidence”.

The data set is the same for the next values; noted with them: Route (rodents): Gavage; Second Route: Dosed Feed.
Take `COP(=O)(OC)OC=C(Cl)Cl`: the carcinogen call is “active; some evidence”.

Staying with this data set, now noted: Route (rodents): Gavage; Second Route: Dosed Water.
As to `ClC(Cl)Br`, the carcinogen call was “active; clear evidence”.

The data set is the same for the next values; noted with them: Route (rodents): Inhalation.
For `CCCBr`, the carcinogen call was “active; some evidence”.

As to `FC(F)=C(F)F`, the carcinogen call is “active; clear evidence”. On to `CCBr`, for which the carcinogen call is “active; some evidence”. As for `[P]#[In]`, the carcinogen call is “active; clear evidence”. Still for that read-out and setting: as for `O=[O+][O-]`, the entry is “active; no evidence”. On the same count and under the same terms, under `CCC1CO1` (stereo not given) stands “active; clear evidence”; under `C=CC(=C)C`, “active; clear evidence”; under `C=CC(=C)Cl`, “active; clear evidence”.

Still in this data set, the particulars now being: Route (rodents): Inhalation; Second Route: Gavage.
Consider `C=C(Cl)Cl`, for which the carcinogen call was “active; clear evidence”.

Staying with this data set, now noted: Route (rodents): Interperitoneal.
Take `Nc1nc(=S)c2ncn([C@H]3C[C@H](O)[C@@H](CO)O3)c2[nH]1`: the carcinogen call was “active; equivocal evidence”. As for `Nc1ncn([C@@H]2O[C@H](CO)[C@@H](O)[C@H]2O)c(=O)n1`, the carcinogen call was “active; inadequate study”. As to `CNNCc1ccc(C(=O)NC(C)C)cc1`, the carcinogen call was “active; clear evidence”.

Staying with this data set, now noted: Route (rodents): Topical.
In the case of `CC1=CC(C)(C)Nc2ccccc21`, the carcinogen call is “active; some evidence”. Take `Oc1cccc(O)c1O`: the carcinogen call is “active; no evidence”.

(Values after PubChem BioAssay AID2202555 (NIEHS Division of Translational Toxicology (DTT)).)
